This passage reports MIC50, MIC90 and MIC results from ChEMBL document CHEMBL1649189, “Avian Aspergillus fumigatus strains resistant to both itraconazole and voriconazole” (2009).

Values after ≈ are worked out from the molar mass of the structure shown.

Common to all, as to type: functional
For assay [1], the system named is Aspergillus fumigatus. Description: Antifungal activity against Aspergillus fumigatus isolate by broth microdilution method. A general note: Dilution methods test growth across graded concentrations, often in twofold steps.
Assay [2] concerns Aspergillus fumigatus. The assay can be described thus: Antifungal activity against voriconalzole-resistant Aspergillus fumigatus isolate by broth microdilution method.
For assay [3], the system named is Aspergillus fumigatus. The assay can be described thus: Antifungal activity against itraconazole-resistant Aspergillus fumigatus isolate by broth microdilution method.

Consider `C[C@@H]1[C@H](O)[C@@H](C)/C=C/C=C/C=C/C=C/C=C/C=C/C=C/[C@H](O[C@@H]2O[C@H](C)[C@@H](O)[C@H](N)[C@@H]2O)C[C@@H]2O[C@](O)(C[C@@H](O)C[C@@H](O)[C@H](O)CC[C@@H](O)C[C@@H](O)CC(=O)O[C@H]1C)C[C@H](O)[C@H]2C(=O)O` [AMPHOTERICIN B], for which, in the assay with Aspergillus fumigatus [1], the MIC50 stood at 2 µg/mL (≈ 2.16 µM) and the MIC90 came out at 2 µg/mL (≈ 2.16 µM).
In the assay on Aspergillus fumigatus [1], `CCC(C)n1ncn(-c2ccc(N3CCN(c4ccc(OCC5COC(Cn6cncn6)(c6ccc(Cl)cc6Cl)O5)cc4)CC3)cc2)c1=O` (stereo not drawn) [ITRACONAZOLE] came in with an MIC50 of 0.5 µg/mL (≈ 0.709 µM) and an MIC90 of 0.5 µg/mL (≈ 0.709 µM). In the assay with Aspergillus fumigatus [2], this molecule displayed a minimal inhibitory concentration (MIC) greater than 16 µg/mL.
In the assay on Aspergillus fumigatus [1], `C[C@@H](c1ncncc1F)[C@](O)(Cn1cncn1)c1ccc(F)cc1F` [VORICONAZOLE] had an MIC50 of 0.25 µg/mL (≈ 0.716 µM) and an MIC90 of 0.5 µg/mL (≈ 1.43 µM). The molecule further came in with an MIC with Aspergillus fumigatus [3] of 4 µg/mL (≈ 11.5 µM).

As usually defined, the MIC50 is the lowest concentration that inhibits either 50% of growth or 50% of the strains tested, depending on the study. Higher therefore signals weaker potency. As a reminder, the MIC90 is the lowest concentration that inhibits either 90% of growth or 90% of the strains tested, depending on the study. For orientation: MIC means the smallest concentration in the dilution series that meets the test's criterion for growth inhibition. A lower MIC goes with greater potency.
